How the values were obtained:
[1] = biological target: T1, Serine/threonine-protein kinase Chk1 (Homo sapiens) (UniProt O14757); experiment: Percentage CHK1 activity remaining in the presence of 3uM inhibitor
T1 sequence (whole entry): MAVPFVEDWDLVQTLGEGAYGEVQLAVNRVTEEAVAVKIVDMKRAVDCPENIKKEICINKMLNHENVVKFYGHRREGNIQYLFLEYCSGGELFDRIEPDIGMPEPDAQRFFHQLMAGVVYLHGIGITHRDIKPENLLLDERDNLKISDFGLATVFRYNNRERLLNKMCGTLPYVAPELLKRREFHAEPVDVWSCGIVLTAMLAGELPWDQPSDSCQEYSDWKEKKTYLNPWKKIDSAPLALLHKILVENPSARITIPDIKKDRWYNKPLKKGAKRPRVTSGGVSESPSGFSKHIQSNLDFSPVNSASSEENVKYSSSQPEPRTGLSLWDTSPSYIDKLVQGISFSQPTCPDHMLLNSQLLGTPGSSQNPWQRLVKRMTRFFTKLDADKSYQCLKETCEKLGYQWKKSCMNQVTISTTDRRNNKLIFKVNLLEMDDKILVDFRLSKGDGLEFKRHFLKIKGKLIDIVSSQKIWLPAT

[2] = biological target: T2, Serine/threonine-protein kinase Nek2 (Homo sapiens) (UniProt P51955); experiment: Percentage NEK2a activity remaining in the presence of 3uM inhibitor
T2 sequence (whole entry): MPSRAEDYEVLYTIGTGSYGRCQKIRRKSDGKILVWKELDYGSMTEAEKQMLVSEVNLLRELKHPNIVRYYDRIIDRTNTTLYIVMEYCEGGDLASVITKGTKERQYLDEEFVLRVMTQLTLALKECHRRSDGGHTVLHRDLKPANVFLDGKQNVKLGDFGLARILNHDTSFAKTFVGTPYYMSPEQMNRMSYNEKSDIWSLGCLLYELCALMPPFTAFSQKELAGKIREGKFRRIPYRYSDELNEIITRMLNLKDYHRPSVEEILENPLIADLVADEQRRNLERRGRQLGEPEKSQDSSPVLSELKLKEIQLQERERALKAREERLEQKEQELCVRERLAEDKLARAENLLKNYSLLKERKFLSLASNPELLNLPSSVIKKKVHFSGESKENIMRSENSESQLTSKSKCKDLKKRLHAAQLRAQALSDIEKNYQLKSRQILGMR

[3] = biological target: T3, Dual specificity tyrosine-phosphorylation-regulated kinase 2 (Homo sapiens) (UniProt Q92630); experiment: Percentage DYRK2 activity remaining in the presence of 3uM inhibitor
T3 sequence (whole entry): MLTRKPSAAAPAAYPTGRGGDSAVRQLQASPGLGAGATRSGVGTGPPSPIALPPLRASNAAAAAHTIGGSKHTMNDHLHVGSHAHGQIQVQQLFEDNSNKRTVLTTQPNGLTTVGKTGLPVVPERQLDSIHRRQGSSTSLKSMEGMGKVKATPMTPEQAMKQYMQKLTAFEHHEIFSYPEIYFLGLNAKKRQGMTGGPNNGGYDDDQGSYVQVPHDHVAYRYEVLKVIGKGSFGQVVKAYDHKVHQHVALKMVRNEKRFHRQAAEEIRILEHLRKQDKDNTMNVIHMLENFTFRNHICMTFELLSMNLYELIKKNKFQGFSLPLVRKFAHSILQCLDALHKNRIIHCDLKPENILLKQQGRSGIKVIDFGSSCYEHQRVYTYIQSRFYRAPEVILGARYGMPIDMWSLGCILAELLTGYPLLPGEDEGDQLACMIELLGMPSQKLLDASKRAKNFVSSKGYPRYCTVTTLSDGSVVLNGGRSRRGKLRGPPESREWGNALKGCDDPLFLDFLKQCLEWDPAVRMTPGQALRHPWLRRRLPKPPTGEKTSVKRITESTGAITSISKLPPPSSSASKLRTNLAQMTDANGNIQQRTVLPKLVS

[4] = biological target: T4, Serine/threonine-protein kinase Sgk1 (Homo sapiens) (UniProt O00141); experiment: Percentage SGK1 activity remaining in the presence of 3uM inhibitor
T4 sequence (whole entry): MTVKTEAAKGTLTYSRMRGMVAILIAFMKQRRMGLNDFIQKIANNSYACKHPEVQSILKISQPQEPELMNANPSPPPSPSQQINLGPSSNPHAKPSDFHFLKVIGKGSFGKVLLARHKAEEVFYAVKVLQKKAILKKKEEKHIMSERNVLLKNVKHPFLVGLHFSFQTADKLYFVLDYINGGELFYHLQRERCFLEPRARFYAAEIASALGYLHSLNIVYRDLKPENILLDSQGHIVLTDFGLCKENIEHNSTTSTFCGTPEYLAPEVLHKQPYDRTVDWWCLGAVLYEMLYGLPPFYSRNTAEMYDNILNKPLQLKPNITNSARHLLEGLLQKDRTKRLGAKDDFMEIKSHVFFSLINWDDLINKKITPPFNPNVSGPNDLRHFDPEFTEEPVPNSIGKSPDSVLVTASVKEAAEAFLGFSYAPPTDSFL

[5] = biological target: MAP kinase-activated protein kinase 2 (Homo sapiens) (UniProt P49137); experiment: Percentage MAPKAPK2 activity remaining in the presence of 3uM inhibitor
MAP kinase-activated protein kinase 2 (Homo sapiens), sequence (P49137 whole entry, looked up): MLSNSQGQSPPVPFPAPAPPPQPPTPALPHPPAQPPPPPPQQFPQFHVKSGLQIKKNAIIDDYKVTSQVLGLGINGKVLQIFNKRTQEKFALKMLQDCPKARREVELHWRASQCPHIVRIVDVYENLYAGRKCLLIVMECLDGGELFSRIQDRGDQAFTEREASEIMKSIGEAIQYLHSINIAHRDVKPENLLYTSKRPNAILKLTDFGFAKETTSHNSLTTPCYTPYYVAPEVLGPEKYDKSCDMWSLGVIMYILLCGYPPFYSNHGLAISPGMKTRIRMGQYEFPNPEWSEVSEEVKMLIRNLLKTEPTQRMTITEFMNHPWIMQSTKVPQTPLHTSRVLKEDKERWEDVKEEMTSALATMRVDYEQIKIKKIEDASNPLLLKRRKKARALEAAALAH

[6] = biological target: T5, Dual specificity tyrosine-phosphorylation-regulated kinase 3 (Homo sapiens) (UniProt O43781); experiment: Percentage DYRK3 activity remaining in the presence of 3uM inhibitor
T5 sequence (whole entry): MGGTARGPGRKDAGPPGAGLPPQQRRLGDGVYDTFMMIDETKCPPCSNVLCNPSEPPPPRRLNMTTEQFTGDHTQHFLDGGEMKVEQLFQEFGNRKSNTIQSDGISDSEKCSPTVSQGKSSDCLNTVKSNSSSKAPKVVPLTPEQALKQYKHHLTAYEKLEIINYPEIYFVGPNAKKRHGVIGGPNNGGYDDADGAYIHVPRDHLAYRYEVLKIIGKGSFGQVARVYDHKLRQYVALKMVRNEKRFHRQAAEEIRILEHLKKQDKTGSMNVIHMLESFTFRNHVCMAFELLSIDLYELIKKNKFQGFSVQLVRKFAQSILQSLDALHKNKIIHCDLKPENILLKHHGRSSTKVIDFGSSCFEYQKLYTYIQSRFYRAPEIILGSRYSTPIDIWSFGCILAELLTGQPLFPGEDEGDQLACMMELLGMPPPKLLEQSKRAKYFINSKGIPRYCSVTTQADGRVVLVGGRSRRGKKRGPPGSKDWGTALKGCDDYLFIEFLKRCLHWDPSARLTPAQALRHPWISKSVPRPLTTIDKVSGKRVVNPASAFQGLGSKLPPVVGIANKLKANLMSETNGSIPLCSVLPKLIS

[7] = biological target: Casein kinase II (Homo sapiens) (UniProt P67870+P68400+P19784); experiment: Percentage CK2 activity remaining in the presence of 2uM inhibitor; format: protein-complex assay
[8] = biological target: SRSF protein kinase 1 (Homo sapiens) (UniProt Q96SB4); experiment: Percentage SRPK1 activity remaining in the presence of 2uM inhibitor; conditions: filed as antagonist
SRSF protein kinase 1 (Homo sapiens), sequence (Q96SB4 whole entry): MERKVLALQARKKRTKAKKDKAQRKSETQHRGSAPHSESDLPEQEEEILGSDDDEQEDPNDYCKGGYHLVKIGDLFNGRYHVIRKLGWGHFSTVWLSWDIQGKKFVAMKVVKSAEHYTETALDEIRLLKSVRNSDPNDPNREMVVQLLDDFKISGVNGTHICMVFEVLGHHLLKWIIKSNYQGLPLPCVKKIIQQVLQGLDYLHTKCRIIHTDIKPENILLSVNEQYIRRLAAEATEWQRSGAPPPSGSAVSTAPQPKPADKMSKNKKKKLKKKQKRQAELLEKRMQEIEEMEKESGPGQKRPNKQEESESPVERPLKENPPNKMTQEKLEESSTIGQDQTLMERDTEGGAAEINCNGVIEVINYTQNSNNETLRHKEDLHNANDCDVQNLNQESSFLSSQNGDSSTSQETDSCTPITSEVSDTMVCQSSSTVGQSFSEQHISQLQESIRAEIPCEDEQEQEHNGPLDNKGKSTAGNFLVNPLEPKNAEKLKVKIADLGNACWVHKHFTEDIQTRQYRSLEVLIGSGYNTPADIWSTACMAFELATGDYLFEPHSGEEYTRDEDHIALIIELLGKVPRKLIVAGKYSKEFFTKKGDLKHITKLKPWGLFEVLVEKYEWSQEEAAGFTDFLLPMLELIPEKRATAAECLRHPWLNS

[9] = biological target: Calcium/calmodulin-dependent protein kinase kinase 1 (Homo sapiens) (UniProt Q8N5S9); experiment: Percentage CaMKKalpha activity remaining in the presence of 2uM inhibitor
Calcium/calmodulin-dependent protein kinase kinase 1 (Homo sapiens), sequence (Q8N5S9 whole entry, looked up): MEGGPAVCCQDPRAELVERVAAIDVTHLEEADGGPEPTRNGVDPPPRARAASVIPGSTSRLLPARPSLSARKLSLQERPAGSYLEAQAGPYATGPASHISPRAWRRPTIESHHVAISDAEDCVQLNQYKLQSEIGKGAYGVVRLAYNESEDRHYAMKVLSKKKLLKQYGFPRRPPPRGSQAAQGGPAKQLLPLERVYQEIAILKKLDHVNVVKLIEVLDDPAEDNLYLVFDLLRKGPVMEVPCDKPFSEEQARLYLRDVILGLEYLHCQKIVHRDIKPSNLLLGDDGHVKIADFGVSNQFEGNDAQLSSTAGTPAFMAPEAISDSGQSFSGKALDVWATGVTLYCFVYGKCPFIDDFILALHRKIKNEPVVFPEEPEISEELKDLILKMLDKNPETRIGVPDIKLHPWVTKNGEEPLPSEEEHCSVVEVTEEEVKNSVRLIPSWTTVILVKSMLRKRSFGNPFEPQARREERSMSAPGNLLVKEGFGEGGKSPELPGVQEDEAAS

`Cc1ccc(-c2c(C(=O)CF)n(CCCO)c3ncnc(N)c23)cc1` gave an Activity [1] of 88%, an Activity [2] of 95% and an Activity [3] of 91%. For the same compound, the Activity [4] was 107%, the Activity [5] was 94% and the Activity [6] was 68%.

`Cn1cc(C2=C(c3ccc(Cl)cc3Cl)C(=O)NC2=O)c2ccccc21` was tested, and the Activity [7] was 89%, the Activity [8] was 16% and the Activity [9] was 85%.

From ChEMBL document CHEMBL1150976, “The selectivity of protein kinase inhibitors: a further update” (Biochem J, 2007)
